Reference: ChEMBL document CHEMBL1909046, “DrugMatrix in vitro pharmacology data”

Legend:
Carbonic anhydrase 2 = Carbonic anhydrase 2 (Homo sapiens, UniProt P00918); assay: DRUGMATRIX: Carbonic Anhydrase II enzyme inhibition (substrate: 4-Nitrophenyl acetate (4-NPA)); format: tissue-based, Erythrocyte; settings: erythrocyte; Not Active = under 50% inhibition at 10 µM
Glycine receptor = Glycine receptor (Rattus norvegicus, UniProt P22771+P24524+P07727+P20781); format: cell membranes, Wistar, Spinal cord, Membrane; also: in other assays of this panel Not Active means under 50% inhibition at 10 µM
[1] = DRUGMATRIX: Phosphodiesterase PDE4 enzyme inhibition (substrate: [3H]cAMP + cAMP); settings: u-937, Not Active = under 50% inhibition at 10 µM
[2] = target: 5-hydroxytryptamine receptor 4 (Cavia porcellus, UniProt O70528); format: cell membranes, Dunkin-Hartley, Striatum, Membrane; also: in other assays of this panel Not Active means under 50% inhibition at 10 µM
[3] = DRUGMATRIX: Glutamate, NMDA, Phencyclidine radioligand binding (ligand: [3H] TCP); format: cell membranes, Rattus norvegicus, Wistar, Cerebral cortex, Membrane; settings: Not Active = under 50% inhibition at 10 µM
Estrogen receptor beta = Estrogen receptor beta (Homo sapiens, UniProt Q92731); settings: sf9; also: in other assays of this panel Not Active means under 50% inhibition at 10 µM
[4] = target: T1, Muscarinic acetylcholine receptor M5 (Homo sapiens, UniProt P08912); format: cell membranes, Membrane; settings: cho-k1; also: in other assays of this panel Not Active means under 50% inhibition at 10 µM
T1 sequence (P08912 whole entry): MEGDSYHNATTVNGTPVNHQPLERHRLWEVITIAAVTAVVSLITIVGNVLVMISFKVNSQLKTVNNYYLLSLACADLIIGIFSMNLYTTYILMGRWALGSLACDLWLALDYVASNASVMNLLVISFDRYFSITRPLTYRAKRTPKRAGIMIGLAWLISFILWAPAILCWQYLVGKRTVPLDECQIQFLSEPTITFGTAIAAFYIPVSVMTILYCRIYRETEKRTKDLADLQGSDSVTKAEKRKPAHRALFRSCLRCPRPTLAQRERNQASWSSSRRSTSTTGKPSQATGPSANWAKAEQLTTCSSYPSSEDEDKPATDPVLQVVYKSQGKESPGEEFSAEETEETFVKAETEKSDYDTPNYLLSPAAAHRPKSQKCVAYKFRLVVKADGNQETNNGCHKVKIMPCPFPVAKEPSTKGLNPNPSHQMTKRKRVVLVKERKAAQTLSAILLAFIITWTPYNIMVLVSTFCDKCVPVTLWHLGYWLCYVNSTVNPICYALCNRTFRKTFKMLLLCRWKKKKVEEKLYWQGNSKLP

Cytochrome P450 2E1 = Cytochrome P450 2E1 (Homo sapiens, UniProt P05181); settings: bti-tn-5b1-4; also: in other assays of this panel Not Active means under 50% inhibition at 10 µM
Cytochrome P450 2E1, sequence (P05181 whole entry): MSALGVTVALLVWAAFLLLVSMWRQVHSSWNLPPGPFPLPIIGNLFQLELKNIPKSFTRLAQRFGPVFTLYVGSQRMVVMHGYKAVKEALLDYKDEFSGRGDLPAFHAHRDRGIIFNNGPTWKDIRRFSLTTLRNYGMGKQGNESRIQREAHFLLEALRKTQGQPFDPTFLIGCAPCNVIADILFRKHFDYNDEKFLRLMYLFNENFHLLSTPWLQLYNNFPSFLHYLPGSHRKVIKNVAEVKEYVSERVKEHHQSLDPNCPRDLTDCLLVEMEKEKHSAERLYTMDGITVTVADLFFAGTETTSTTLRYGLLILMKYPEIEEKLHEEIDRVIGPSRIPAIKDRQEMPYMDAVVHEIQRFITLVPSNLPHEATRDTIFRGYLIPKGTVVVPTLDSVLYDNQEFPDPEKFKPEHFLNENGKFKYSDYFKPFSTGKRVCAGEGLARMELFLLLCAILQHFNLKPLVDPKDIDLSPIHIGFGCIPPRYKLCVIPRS

Estrogen receptor beta, sequence (Q92731 whole entry): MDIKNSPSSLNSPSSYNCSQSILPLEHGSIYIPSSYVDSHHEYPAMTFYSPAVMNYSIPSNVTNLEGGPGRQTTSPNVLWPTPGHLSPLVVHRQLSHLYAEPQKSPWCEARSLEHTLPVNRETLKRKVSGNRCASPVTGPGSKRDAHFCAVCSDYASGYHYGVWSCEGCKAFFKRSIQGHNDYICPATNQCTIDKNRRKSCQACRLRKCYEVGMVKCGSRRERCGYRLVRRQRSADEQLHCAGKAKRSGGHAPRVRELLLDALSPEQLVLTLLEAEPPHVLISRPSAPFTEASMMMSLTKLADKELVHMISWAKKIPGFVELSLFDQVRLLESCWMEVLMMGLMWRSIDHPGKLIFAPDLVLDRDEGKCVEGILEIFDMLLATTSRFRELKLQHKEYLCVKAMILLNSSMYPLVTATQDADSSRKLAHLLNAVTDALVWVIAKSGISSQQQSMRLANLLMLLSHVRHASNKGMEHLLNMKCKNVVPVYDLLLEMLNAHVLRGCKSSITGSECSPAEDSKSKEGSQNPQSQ
5-hydroxytryptamine receptor 4, sequence (O70528 whole entry): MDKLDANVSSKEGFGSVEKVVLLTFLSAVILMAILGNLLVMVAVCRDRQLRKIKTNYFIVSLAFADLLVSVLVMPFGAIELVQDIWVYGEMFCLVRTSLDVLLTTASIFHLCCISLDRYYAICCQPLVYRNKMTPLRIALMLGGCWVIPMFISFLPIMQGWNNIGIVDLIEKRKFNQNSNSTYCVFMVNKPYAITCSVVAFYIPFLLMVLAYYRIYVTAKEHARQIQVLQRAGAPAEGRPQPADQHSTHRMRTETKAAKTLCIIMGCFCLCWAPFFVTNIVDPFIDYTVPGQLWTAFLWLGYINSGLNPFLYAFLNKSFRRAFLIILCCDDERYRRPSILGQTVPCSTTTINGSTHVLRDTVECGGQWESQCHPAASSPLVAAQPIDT

| Structure (SMILES) | IC50 (Carbonic anhydrase 2) | IC50 (Glycine receptor) | IC50 [1] | Ki [1] | IC50 [2] | IC50 [3] | Ki [3] | IC50 (Estrogen receptor beta) | IC50 [4] | IC50 (Cytochrome P450 2E1) | Ki (Cytochrome P450 2E1) | IC50 ([1]; read-out: IC50) [µM] | Ki [2] |
| --- | --- | --- | --- | --- | --- | --- | --- | --- | --- | --- | --- | --- | --- |
| C[C@]12CCC(=O)C=C1CC[C@@H]1[C@@H]2[C@@H](O)C[C@@]2(C)[C@H]1CC[C@]2(O)C(=O)CO [HYDROCORTISONE] | Not Active | Not Active | Not Active | Not Active | Not Active | Not Active | Not Active | Not Active | Not Active | Not Active | Not Active | – | – |
| Nc1nc(N)nc(NC2CC2)n1 [CYROMAZINE] | Not Active | Not Active | Not Active | Not Active | Not Active | Not Active | Not Active | Not Active | Not Active | Not Active | Not Active | – | – |
| C[C@]12C/C(=C/O)C(=O)C[C@@H]1CC[C@@H]1[C@@H]2CC[C@@]2(C)[C@H]1CC[C@]2(C)O [OXYMETHOLONE] | Not Active | Not Active | Not Active | Not Active | Not Active | Not Active | Not Active | Not Active | Not Active | Not Active | Not Active | – | – |
| CCOC(=O)[C@H](CCc1ccccc1)N[C@@H](C)C(=O)N1Cc2ccccc2C[C@H]1C(=O)O | Not Active | Not Active | Not Active | Not Active | Not Active | Not Active | Not Active | Not Active | Not Active | Not Active | Not Active | – | – |
| CCc1oc2ccccc2c1C(=O)c1cc(Br)c(O)c(Br)c1 [BENZBROMARONE] | Not Active | Not Active | – | – | Not Active | Not Active | Not Active | Not Active | Not Active | Not Active | Not Active | 1.06 | – |
| CC(=O)O[C@]1(C(C)=O)CC[C@H]2[C@@H]3C=C(Cl)C4=CC(=O)[C@@H]5C[C@@H]5[C@]4(C)[C@H]3CC[C@@]21C [CYPROTERONE ACETATE] | Not Active | Not Active | Not Active | Not Active | Not Active | Not Active | Not Active | Not Active | Not Active | Not Active | Not Active | – | – |
| CC(C)(Oc1ccc(C2CC2(Cl)Cl)cc1)C(=O)O (stereo unspecified) [CIPROFIBRATE] | Not Active | Not Active | Not Active | Not Active | – | Not Active | Not Active | Not Active | Not Active | Not Active | Not Active | – | Not Active |
| CC(C)(C)c1ccc(S(=O)(=O)/C=C/C#N)cc1 [BAY-11-7085] | Not Active | Not Active | Not Active | Not Active | Not Active | Not Active | Not Active | Not Active | Not Active | Not Active | Not Active | – | – |
| Cc1cccc(Nc2ccccc2C(=O)O)c1C [MEFENAMIC ACID] | Not Active | Not Active | Not Active | Not Active | Not Active | Not Active | Not Active | Not Active | Not Active | Not Active | Not Active | – | – |
| NC[C@@H]1O[C@H](O[C@H]2[C@@H](O)[C@H](O[C@@H]3[C@@H](O)[C@H](N)C[C@H](N)[C@H]3O[C@H]3O[C@H](CN)[C@@H](O)[C@H](O)[C@H]3N)O[C@@H]2CO)[C@H](N)[C@@H](O)[C@@H]1O [FRAMYCETIN] | Not Active | Not Active | Not Active | Not Active | Not Active | Not Active | Not Active | Not Active | Not Active | Not Active | Not Active | – | – |
| O=C(O)c1cccnc1 [NIACIN] | Not Active | Not Active | Not Active | Not Active | Not Active | Not Active | Not Active | Not Active | Not Active | Not Active | Not Active | – | – |
| CC[C@]1(O)CC[C@H]2[C@@H]3CCC4=CCCC[C@@H]4[C@H]3CC[C@@]21C | Not Active | Not Active | Not Active | Not Active | Not Active | Not Active | Not Active | Not Active | Not Active | Not Active | Not Active | – | – |
